Laboratory results taken from US20120108501A1, “Protease Inhibitors” (priority 2009, published 2012).

Test: Pharmacokinetics of released PEGylated protease inhibitor following P.O. administration of prodrugs in rats
Type: in vivo, male Sprague-Dawley rats
Design: AUCall Mean: concentration or dose not given beside the values; C24 Mean: unit not given here
Conditions: rats (n = 4-5); for C24 Mean: concentration at 24 hours
Experimental: Pharmacokinetic analysis of protease inhibitors described herein was conducted. To evaluate the pharmacokinetics of PEGylated protease inhibitor conjugates with releasable lipophilic attachments, test compounds were administered to male Sprague-Dawley rats.
At various times following test article administration, serial blood samples were collected from indwelling jugular vein catheters and transferred to micro-tubes containing 7.5 μL of 20% w/v K2EDTA as an anticoagulant. Following processing of the blood samples to plasma (10 minutes at 10000 rpm, Centrifuge Model: Kubota 3500), plasma concentrations of the test article or corresponding PEGylated molecule released from the test article was measured using LC-MS/MS methods. Pharmacokinetic parameters were estimated using noncompartmental methods.

[1] = mPEG5-atazanavir in plasma after PO administration of mPEG5-ATV or of the listed prodrug
[2] = mPEG6-atazanavir in plasma after PO administration of mPEG6-ATV or of the listed prodrug
[3] = mPEG3-atazanavir in plasma after PO administration of mPEG3-ATV or of the listed prodrug

Structure (SMILES)	AUCall Mean [1] [ng·h/mL]	Cmax Mean [1] [ng/mL]	MRT last Mean [1] [h]	Tmax Median [1] [h]	AUCall Mean [2] [ng·h/mL]	Cmax Mean [2] [ng/mL]	MRT last Mean [2] [h]	Tmax Median [2] [h]	also measured
CCOC(CC)OC(CN(Cc1ccc(-c2ccccn2)cc1)NC(=O)C(NC(=O)OC)C(C)(C)C)C(Cc1ccccc1)NC(=O)C(NC(=O)OCCOCCOCCOCCOCCOC)C(C)(C)C (mixture of isomers) [ATV-1-Ethoxy propoxy-mPEG5, atazanavir-1-ethoxypropoxy-mPEG5]	235	55.3	3.53	1.00	–	–	–	–	–
CCOC(CC)OC(CN(Cc1ccc(-c2ccccn2)cc1)NC(=O)C(NC(=O)OC)C(C)(C)C)C(Cc1ccccc1)NC(=O)C(NC(=O)OCCOCCOCCOCCOCCOCCOC)C(C)(C)C (mixture of isomers) [ATV-1-Ethoxy propoxy-mPEG6, atazanavir-1-ethoxypropoxy-mPEG6]	–	–	–	–	185	83.0	5.16	0.750	–
COCCOCCOCCOC(=O)N[C@H](C(=O)N[C@@H](Cc1ccccc1)[C@H](CN(Cc1ccc(-c2ccccn2)cc1)NC(=O)[C@@H](NC(=O)OC)C(C)(C)C)OC(C)=O)C(C)(C)C [Acetyl-mPEG3-ATV, O-Acetyl-mPEG3-Atazanavir]	–	–	–	–	–	–	–	–	AUCall Mean [3]: 5.63 ng·h/mL; Cmax Mean [3]: 2.43 ng/mL; MRT last Mean [3]: 1.01 h; Tmax* Median [3]: 0.750 h
COCCOCCOCCOCCOCCOCCOC(=O)NC(C(=O)NC(Cc1ccccc1)C(CN(Cc1ccc(-c2ccccn2)cc1)NC(=O)C(NC(=O)OC)C(C)(C)C)OC(C)=O)C(C)(C)C (centres unmarked) [Acetyl-mPEG6-Atazanavir, O-Acetyl-mPEG6-Atazanavir]	–	–	–	–	150	10.3	13.8	6.00	–
CCC(=O)OC(CN(Cc1ccc(-c2ccccn2)cc1)NC(=O)C(NC(=O)OC)C(C)(C)C)C(Cc1ccccc1)NC(=O)C(NC(=O)OCCOCCOCCOC)C(C)(C)C (centres unmarked) [C2H5CO-mPEG3-ATV, mPEG3-Atazanavir Propionate]	–	–	–	–	–	–	–	–	AUCall Mean [3]: 59.6 ng·h/mL; Cmax Mean [3]: 17.8 ng/mL; MRT last Mean [3]: 2.44 h; Tmax* Median [3]: 0.500 h
CCC(=O)OC(CN(Cc1ccc(-c2ccccn2)cc1)NC(=O)C(NC(=O)OC)C(C)(C)C)C(Cc1ccccc1)NC(=O)C(NC(=O)OCCOCCOCCOCCOCCOC)C(C)(C)C (centres unmarked) [C2H5CO-mPEG5-ATV, mPEG5-Atazanavir Propionate]	39.1	6.90	4.04	0.750	–	–	–	–	–
CCC(=O)O[C@@H](CN(Cc1ccc(-c2ccccn2)cc1)NC(=O)[C@@H](NC(=O)OC)C(C)(C)C)[C@H](Cc1ccccc1)NC(=O)[C@@H](NC(=O)OCCOCCOCCOCCOCCOCCOC)C(C)(C)C [C2H5CO-mPEG6-ATV, mPEG6-Atazanavir Propionate]	–	–	–	–	13.2	1.86	8.28	2.00	–
CCCC(=O)O[C@@H](CN(Cc1ccc(-c2ccccn2)cc1)NC(=O)[C@@H](NC(=O)OC)C(C)(C)C)[C@H](Cc1ccccc1)NC(=O)[C@@H](NC(=O)OCCOCCOCCOC)C(C)(C)C [C3H7CO-mPEG3-ATV, mPEG3-Atazanavir Butyrate]	–	–	–	–	–	–	–	–	C24 Mean [3]: 0.00; AUCall Mean [3]: 11.4 ng·h/mL; Cmax Mean [3]: 3.08 ng/mL; MRT last Mean [3]: 1.56 h; Tmax* Median [3]: 1.00 h
CCCC(=O)OC(CN(Cc1ccc(-c2ccccn2)cc1)NC(=O)C(NC(=O)OC)C(C)(C)C)C(Cc1ccccc1)NC(=O)C(NC(=O)OCCOCCOCCOCCOCCOC)C(C)(C)C (centres unmarked) [C3H7CO-mPEG5-ATV, mPEG5-Atazanavir Butyrate]	3.92	1.44	0.984	1.00	–	–	–	–	C24 Mean [1]: 0.00
CCCC(=O)OC(CN(Cc1ccc(-c2ccccn2)cc1)NC(=O)C(NC(=O)OC)C(C)(C)C)C(Cc1ccccc1)NC(=O)C(NC(=O)OCCOCCOCCOCCOCCOCCOC)C(C)(C)C (centres unmarked) [C3H7CO-mPEG6-ATV, mPEG6-Atazanavir Butyrate]	–	–	–	–	6.16	2.22	1.36	2.00	C24 Mean [2]: 0.00
CCCCC(=O)O[C@@H](CN(Cc1ccc(-c2ccccn2)cc1)NC(=O)[C@@H](NC(=O)OC)C(C)(C)C)[C@H](Cc1ccccc1)NC(=O)[C@@H](NC(=O)OCCOCCOCCOCCOCCOC)C(C)(C)C [C4H9CO-PEG5-ATV, C4H9CO-mPEG5-atazanavir]	39.3	9.46	2.43	0.750	–	–	–	–	–
CCCCC(=O)OC(CN(Cc1ccc(-c2ccccn2)cc1)NC(=O)C(NC(=O)OC)C(C)(C)C)C(Cc1ccccc1)NC(=O)C(NC(=O)OCCOCCOCCOC)C(C)(C)C (centres unmarked) [C4H9CO-mPEG3-ATV, C4H9CO-mPEG3-atazanavir]	–	–	–	–	–	–	–	–	AUCall Mean [3]: 40.1 ng·h/mL; Cmax Mean [3]: 7.42 ng/mL; MRT last Mean [3]: 3.00 h; Tmax* Median [3]: 1.25 h
CCCCC(=O)OC(CN(Cc1ccc(-c2ccccn2)cc1)NC(=O)C(NC(=O)OC)C(C)(C)C)C(Cc1ccccc1)NC(=O)C(NC(=O)OCCOCCOCCOCCOCCOCCOC)C(C)(C)C (centres unmarked) [C4H9CO-mPEG6-ATV, C4H9CO-mPEG6-atazanavir]	–	–	–	–	36.5	13.8	1.14	0.750	–
CCCCCC(=O)O[C@@H](CN(Cc1ccc(-c2ccccn2)cc1)NC(=O)[C@@H](NC(=O)OC)C(C)(C)C)[C@H](Cc1ccccc1)NC(=O)[C@@H](NC(=O)OCCOCCOCCOCCOCCOC)C(C)(C)C [C5H11CO-mPE5-ATV, C5H11CO-mPEG5-atazanavir]	23.7	7.38	2.42	0.500	–	–	–	–	–
CCCCCC(=O)O[C@@H](CN(Cc1ccc(-c2ccccn2)cc1)NC(=O)[C@@H](NC(=O)OC)C(C)(C)C)[C@H](Cc1ccccc1)NC(=O)[C@@H](NC(=O)OCCOCCOCCOC)C(C)(C)C [C5H11CO-mPEG3-ATV, C5H11CO-mPEG3-atazanavir]	–	–	–	–	–	–	–	–	AUCall Mean [3]: 33.9 ng·h/mL; Cmax Mean [3]: 7.51 ng/mL; MRT last Mean [3]: 2.78 h; Tmax* Median [3]: 2.00 h
CCCCCC(=O)O[C@@H](CN(Cc1ccc(-c2ccccn2)cc1)NC(=O)[C@@H](NC(=O)OC)C(C)(C)C)[C@H](Cc1ccccc1)NC(=O)[C@@H](NC(=O)OCCOCCOCCOCCOCCOCCOC)C(C)(C)C [C5H11CO-mPEG6-ATV, C5H11CO-mPEG6-atazanavir]	–	–	–	–	78.1	21.4	5.01	0.500	–
CCCCCCCC(=O)OC(CN(Cc1ccc(-c2ccccn2)cc1)NC(=O)C(NC(=O)OC)C(C)(C)C)C(Cc1ccccc1)NC(=O)C(NC(=O)OCCOCCOCCOCCOCCOCCOC)C(C)(C)C (centres unmarked) [C7H15CO-mPEG6-ATV, O-Octanoyl-mPEG6-Atazanavir]	–	–	–	–	66.0	11.1	4.47	2.00	–
COCCOCCOCCOCCOCCOC(=O)NC(C(=O)NC(Cc1ccccc1)C(CN(Cc1ccc(-c2ccccn2)cc1)NC(=O)C(NC(=O)OC)C(C)(C)C)OC(=O)CNC(=O)C(N)CC(C)C)C(C)(C)C.Cl (stereo not drawn) [Leu-Gly-mPEG5-Atazanavir HCl, Leu-Gly-mPEG5-Atazanavir Hydrochloride]	344	19.5	11.3	12.0	–	–	–	–	C24 Mean [1]: 18.1
COCCOCCOCCOCCOCCOCCOC(=O)N[C@H](C(=O)N[C@@H](Cc1ccccc1)[C@H](CN(Cc1ccc(-c2ccccn2)cc1)NC(=O)[C@@H](NC(=O)OC)C(C)(C)C)OC(=O)CNC(=O)[C@@H](N)CC(C)C)C(C)(C)C.Cl [Leu-Gly-mPEG6-ATV, Leu-Gly-mPEG6-Atazanavir Hydrochloride]	–	–	–	–	294	13.7	27.2	30.0	–
